The record followed here is patent US4727074A, “2-(phenylmethylene)-1-(diaminoalkoxy) cycloalkanes and their pharmaceutical uses” (priority 1983, dated 1988).

One data set deals with writhing reactions. Nature of the data set: Analgesic effect on mice (acetic acid writhing). It counts as in vivo. The settings on record: for ED50: Mus musculus, po, 1 h, read-out: ED50 (analgesic effect); for Therapeutical index (analgesic): Table II, LD50/ED50, mice; for ED50 (analgesic effect) / ED50 (analgesic effect), inactive: mice, oral; for ED50 (analgesic effect): one hour prior to 0.5% acetic acid. The protocol: (3) Analgesic effect on mice
To mice 0.4 ml of 0.5% acetic acid is […] administered. After 5 minutes the characteristic writhing reactions are counted for a period of 5 minutes. The test compound is administered orally one hour prior to the administration of acetic acid. The activity is expressed in the percentage of the data obtained for the control group.

Data set [1] is described as follows: Acute toxicity on mice (oral). It counts as in vivo. The conditions noted are these: mouse, in vivo, 4 days observation. How it is done:
(§1) (1) Acute toxicity on mice
(§2) The acute toxicity is determined on male and female white mice of the CFLP strain. The body weight of the animals amounts to 18-24 g. The test compound is administered orally in a dose of 20 ml/kg. After treatment the animals are placed in a mouse box and kept on scrapings litter at room temperature. The animals receive mouse fodder and tap water ad libitum.

The test system of data set [2] is Hexobarbital sleeping time. The data set can be described thus: animal or person. The format is in vivo. The conditions noted are these: for ED50: Mus musculus, iv, read-out: ED50 (narcosis potentiating effect); for Therapeutical index (narcosis potentiating): Table I, LD50/ED50, mice; for ED50 (narcosis potentiating effect): mice, Hexobarbital i.v., effect = sleeping time 2.5 times longer than control. How it is done:
(2) Narcosis potentiating effect
To mice having a body weight of 20-24 g Hexobarbital is administered intravenously in a dose of […]. The sleeping time of the treated and control animals is measured.

Data set [3] concerns white mice of the CFLP strain. Nature of the data set: Acute toxicity on mice (oral). The format is in vivo. The conditions noted are these: 4 days observation. How it is done:
as §1, §2

Data set [4] can be described thus: Acute toxicity i.v. (LD50 of Table IV). The conditions noted are these: rat, in vivo.
The test system of another data set is aconitine. The data set can be described thus: animal or person. It counts as in vivo, rats. The settings on record: for ED50: Rattus norvegicus, iv, read-out: Percental aconitine inhibition ED50; for Therapeutical index (antiarrhythmial): Table IV, LD50 i.v./ED50; for Percental inhibition of aconitine: rats, 2 minutes before aconitine. The protocol:
(4) Antiarrhythmial effect on rats
The antiarrhythmial effect is determined on rats (both male and female; body weight 160-200 g) according to the modified test of Marmo et al. [Marmo et al.: Arzneimittelforschung 20, 12 (1970)]. Aconitine is intravenously administered in the form of a bolus injection. The ECG deviations are followed for 5 minutes by a standard II method. The test compound is administered intravenously 2 minutes before the addition of aconitine.
In Table IV the antiarrhythmial effect of a representative compound of the present invention is compared to that of a very active compound specifically disclosed in Hungarian Pat. No. 169,298. The test is carried out as disclosed in connection with Table III.

In the case of `C(=C1/CCCC/C1=N\OCCCN1CCN(c2ccccc2)CC1)/c1ccccc1` [Example 1, 2-[(E)-phenylmethylene]-1-[(E)-(4'-phenyl-piperazinyl-propoxyimino)]-cyclohexane], the ED50 (with writhing reactions; in data set [2]) was 200 mg/kg throughout. In addition, the “Therapeutical index (analgesic)” value in the data set with writhing reactions is listed as more than 10.0. The LD50 at 96 h is 2000 mg/kg in data set [1] (po, Table I) and more than 2000 mg/kg in data set [1] (po, Table II). For the same compound, the “Therapeutical index (narcosis potentiating)” value in data set [2] worked out at 10.0.
Consider `Clc1cccc(/C=C2\CCCCC\C2=N/OCCCN2CCN(Cc3ccccc3)CC2)c1` [Example 2, 2-[(E)-(m-chloro-phenylmethylene)]-1-[(E)-(4'-benzylpiperazinyl-propoxyimino)]-cycloheptane], for which, in the data set on writhing reactions, the “Therapeutical index (analgesic)” value was 17.2 and the “ED50 (analgesic effect)” value turned out to be 43 mg/kg. Besides, the LD50 in data set [3] (Table II) is recorded as 740 mg/kg.
In the case of `CC(C)N(CCCO/N=C1\CCCC\C1=C/c1ccc(Cl)cc1)C(C)C` [Example 3, 2-[(E)-(p-chloro-phenylmethylene)]-1-[(E)-(3'-diisopropylamino-propoxyimino)]-cyclohexane], in the data set on writhing reactions, the ED50 was 45 mg/kg and the “Therapeutical index (analgesic)” value was found to be 24.2. The LD50 at 96 h in data set [1] (po, Table II) turned out to be 1100 mg/kg.
As for `CC(C)N(CCCO/N=C1\CCCC\C1=C/c1ccccc1)C(C)C` [Example 4, 2-[(E)-phenylmethylene]-1-[(E)-(3'-diisopropylamino-propoxyimino)]-cyclohexane], the median lethal dose (LD50) in data set [4] is 12.5 mg/kg. Also, in the data set with aconitine, the ED50 was 0.54 mg/kg and the “Therapeutical index (antiarrhythmial)” value was found to be 23.14. The “Percental inhibition of aconitine” value in the data set with aconitine (dose 1 mg/kg i.v.) is given as 86.2 Percental.
In data set [1] (po, Table I), `CC(C)N(CCO/N=C1\CCCCC\C1=C\c1ccccc1)C(C)C` [Example 5, 2-[(Z)-phenylmethylene]-1-[(E)-(2'-diisopropylamino-ethoxyimino)]-cycloheptane] had an LD50 at 96 h of 800 mg/kg. In data set [2], the ED50 is 40 mg/kg and the “Therapeutical index (narcosis potentiating)” value is reported as 20.0. In the data set with aconitine (dose 4 mg/kg i.v.), the “Percental inhibition of aconitine” value is 34.7 Percental.
Take `CC(CO/N=C1\CCCCC\C1=C/c1ccccc1)N(C)C` (stereo not drawn) [Example 8, 2-[(E)-phenylmethylene]-1-[(E)-(2'-dimethylamino-2'-methyl-1-ethoxyimino)]-cycloheptane]: in data set [1] (po, Table I), the LD50 at 96 h worked out at 800 mg/kg. In addition, in data set [2], the ED50 came out at 22 mg/kg and the “Therapeutical index (narcosis potentiating)” value is 36.4.
On the same counts, the results for `CC(CO/N=C1\CCCC\C1=C/c1ccccc1)N(C)C` (stereo not drawn) [Example 9, 2-[(E)-phenylmethylene]-1-[(E)-(2'-dimethylamino-2'-methyl-1-ethoxyimino)]-cyclohexane] are 600 mg/kg, 23 mg/kg and 26.0.
`CC(C)N(CCO/N=C1\CCCCCC\C1=C/c1ccccc1)C(C)C` [Example 10, 2-[(E)-phenylmethylene]-1-[(E)-(2'-diisopropylamino-ethoxyimino)]-cyclooctane]: in the data set on writhing reactions, the ED50 was 58 mg/kg and the “Therapeutical index (analgesic)” value is reported as 6.9. The same compound gave an LD50 at 96 h in data set [1] (po, Table II) of 400 mg/kg. Besides, the “Percental inhibition of aconitine” value with aconitine (dose 4 mg/kg i.v.) was 57.6 Percental.
As to `CN(C)CCCO/N=C1\CCCCCC\C1=C/c1ccccc1` [Example 11], in the data set with writhing reactions, the “Therapeutical index (analgesic)” value came out at 6.7 and the “ED50 (analgesic effect)” value stood at 150 mg/kg. Further, the LD50 in data set [3] (Table I) is on record as 1000 mg/kg. In data set [3] (Table II), this compound had an LD50 of 1000 mg/kg. Also, in data set [2], the “Therapeutical index (narcosis potentiating)” value worked out at 500.0 and the “ED50 (narcosis potentiating effect)” value came out at 2 mg/kg.
For the compound `CC(C)N(CCO/N=C1\CCCC\C1=C/c1ccccc1)C(C)C` [Example 12], the “Percental inhibition of aconitine” value in the data set on aconitine (dose 2 mg/kg i.v.) is recorded as 39.2 Percental.
As to `CN(C)CCO/N=C1\CCCC\C1=C/c1ccc(Cl)cc1` [Example 13], the LD50 at 96 h in data set [1] (po, Table I) stood at 2000 mg/kg. In data set [2], the ED50 is 10 mg/kg and the “Therapeutical index (narcosis potentiating)” value is 200.0. The “Percental inhibition of aconitine” value with aconitine (dose 2 mg/kg i.v.) amounted to 35.3 Percental.
For `CCN(CC)CC(=O)Nc1c(C)cccc1C` [Lidocaine, N,N-diethyl-2,6-dimethyl-acetanilide, reference compound], the “Percental inhibition of aconitine” value in the data set with aconitine (dose 4 mg/kg i.v.) worked out at 23.5 Percental.
In the case of `CCCC(C)(COC(N)=O)COC(N)=O` [Meprobamate, 2-methyl-2-n-propyl-1,3-propanediol-dicarbamate, reference compound], in data set [1] (Table I), the LD50 at 96 h turned out to be 1100 mg/kg. Also, in data set [2], the ED50 came to 260 mg/kg and the “Therapeutical index (narcosis potentiating)” value came to 4.2.
With `CC(=O)Nc1ccc(O)cc1` [Paracetamol, 4-hydroxy-acetanilide, reference compound], the 50% effective dose (ED50) in the data set with writhing reactions turned out to be 180 mg/kg.
As to `CN(C)CCCON=C1CCCCC1Cc1ccccc1` (stereo not drawn) [Reference compound A, 2-benzyl-1-(3'-dimethylamino-propoxy-imino)-cyclohexane, reference compound], the LD50 at 96 h in data set [1] (po, Table II) came out at 250 mg/kg. In addition, the “ED50 (narcosis potentiating effect)” value in data set [2] is “inactive in a dose of 50 mg/kg”.
`COc1ccccc1C=C1CCCCC1=NOCC(C)CN(C)C` (stereo not drawn) [Reference compound C, 1-(2'-methyl-3'-dimethylaminopropoxyimino)-2-(o-methoxy-benzal)-cyclohexane, reference compound]: in data set [2], the “ED50 (narcosis potentiating effect)” value was “inactive in a dose of 100 mg/kg”.
As to `CN(C)CCCON=C1CCCCC1Cc1ccc(Cl)cc1` (stereo not drawn) [Reference compound E, 1-(3'-dimethylamino-propoxyimino)-2-(p-chlorobenzyl)-cyclohexane, reference compound], in data set [2], the “ED50 (narcosis potentiating effect)” value was “inactive in a dose of 170 mg/kg”.
Take `COc1ccc(C=C2CCCCC2=NOCCCN(C)C)cc1` [Reference compound F, 1-(3'-dimethylamino-propoxyimino)-2-(p-methoxybenzal)-cyclohexane, reference compound]: in the data set with writhing reactions (in a dose of 350 mg/kg), the “ED50 (analgesic effect), inactive” value was “inactive”. Further, in data set [1] (po, Table II), the LD50 at 96 h was found to be 1750 mg/kg.
With `CC(C)N(CCON=C1CCCCCC1=Cc1ccccc1)C(C)C` [Reference compound G, 2-benzal-1-(2'-diisopropylamino-ethoxyimino)-cycloheptane, reference compound], the “ED50 (analgesic effect), inactive” value in the data set with writhing reactions (in a dose of 65 mg/kg) is “inactive”. Also, the LD50 at 96 h in data set [1] (po, Table II) came out at 325 mg/kg. Moreover, the LD50 in data set [4] came out at 21.2 mg/kg. Besides, in the data set on aconitine, the ED50 worked out at 2 mg/kg and the “Therapeutical index (antiarrhythmial)” value turned out to be 10.59.
